Assay results published in ChEMBL document CHEMBL4002572, “Development of CXCR4 modulators by virtual HTS of a novel amide-sulfamide compound library” (Eur J Med Chem, 2017).
Active and inactive are the calls of the source. No cut-off for these calls is given here.

Experiments:
Mus musculus [1] = assay: Anti-inflammatory activity in Swiss albino mouse assessed as inhibition of xylene-induced ear edema at 30 mg/kg, ip pretreated for 1 hr followed by xylene challenge measured after 30 mins relative to control; format: functional
[2] = target: C-X-C chemokine receptor type 4 (Homo sapiens) (UniProt P61073); assay: Displacement of biotinylated-TN14003 from CXCR4 in human MDA-MB-231 cells assessed as reduction in fluorescence preincubated for 10 mins followed by biotinylated-TN14003 addition measured after 30 mins by streptavidin-rhodamine staining based microscopic analysis; format: cell-based
C-X-C chemokine receptor type 4 (Homo sapiens), sequence (P61073 whole entry): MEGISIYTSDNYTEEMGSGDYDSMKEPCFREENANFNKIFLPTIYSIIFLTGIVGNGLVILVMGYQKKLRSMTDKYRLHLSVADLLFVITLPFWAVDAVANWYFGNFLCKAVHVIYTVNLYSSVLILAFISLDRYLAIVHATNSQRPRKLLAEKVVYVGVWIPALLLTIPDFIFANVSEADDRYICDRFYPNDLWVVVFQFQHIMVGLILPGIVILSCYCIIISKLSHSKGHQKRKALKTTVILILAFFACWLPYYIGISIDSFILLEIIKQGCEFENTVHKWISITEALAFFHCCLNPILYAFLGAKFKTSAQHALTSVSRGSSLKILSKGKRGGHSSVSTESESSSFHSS

[3] = target: C-X-C chemokine receptor type 4 (Homo sapiens) (UniProt P61073); assay: Inhibition of CXCR4/CXCL12 interaction-mediated chemotaxis in human MDA-MB-231 cells assessed as inhibition of cell invasion at 100 nM after 22 hrs by hematoxylin/eosin dye-based matrigel assay relative to control
Mus musculus [4] = assay: Anti-inflammatory activity in xylene-induced ear edema mouse model assessed as reduction in edema volume at 10 mg/kg, ip administered 30 mins post xylene challenge measured after 2 hrs by hematoxylin/eosin dye-based assay; format: functional, organism-based
[5] = target: C-X-C chemokine receptor type 4 (Mus musculus) (UniProt P70658); assay: Inhibition of CXCR4 in mouse J774A.1 cells assessed as reduction in Crohn's disease-associated Escherichia coli 131 infection-induced TNF-alpha level at 200 nM relative to control; format: cell-based
C-X-C chemokine receptor type 4 (Mus musculus), sequence (P70658 whole entry): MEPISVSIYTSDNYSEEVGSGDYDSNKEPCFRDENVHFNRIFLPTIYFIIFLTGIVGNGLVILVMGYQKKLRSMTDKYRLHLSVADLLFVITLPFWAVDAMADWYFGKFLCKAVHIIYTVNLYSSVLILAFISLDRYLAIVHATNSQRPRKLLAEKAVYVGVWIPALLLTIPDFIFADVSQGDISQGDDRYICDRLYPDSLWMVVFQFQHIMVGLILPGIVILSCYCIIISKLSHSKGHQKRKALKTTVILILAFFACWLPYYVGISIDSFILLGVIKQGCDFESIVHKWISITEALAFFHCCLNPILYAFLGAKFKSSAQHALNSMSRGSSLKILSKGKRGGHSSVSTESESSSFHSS

[6] = target: C-X-C chemokine receptor type 4 (Homo sapiens) (UniProt P61073); assay: Potency index, ratio of AMD3100 EC to compound EC for displacement of biotinylated TN14003 from CXCR4 in human MDA-MB-231 cells; format: cell-based
Mus musculus [7] = assay: Anti-inflammatory activity in mouse assessed as inhibition of xylene-induced ear edema at 10 mg/kg, ip administered 30 mins post xylene challenge measured after 2 hrs relative to control; format: functional
MDA-MB-231 = assay: Cytotoxicity against human MDA-MB-231 cells assessed as cell viability at 10 uM measured after 24 hrs by MTT assay; format: cell-based; details: mda-mb-231, 24 h
Mus musculus [8] = assay: Anti-inflammatory activity in xylene-induced ear edema mouse model assessed as reduction in ear thickness at 10 mg/kg, ip administered 30 mins post xylene challenge measured after 2 hrs by hematoxylin/eosin dye-based assay; format: functional, organism-based
Mus musculus [9] = assay: Anti-inflammatory activity in xylene-induced ear edema mouse model assessed as reduction in inflammatory cells at 10 mg/kg, ip administered 30 mins post xylene challenge measured after 2 hrs by hematoxylin/eosin dye-based assay; format: functional, organism-based
[10] = target: C-X-C chemokine receptor type 4 (Homo sapiens) (UniProt P61073); assay: Inhibition of CXCR4/CXCL12 (unknown origin) interaction-mediated Akt phosphorylation by western blot analysis

Row | SMILES | EC [2] | inhibition [3] | inhibition in vivo at 10 mg/kg (Mus musculus [7]) | further results
1 | Cc1ccc(-c2cc(C(F)(F)F)nn2-c2ccc(S(N)(=O)=O)cc2)cc1 [CELECOXIB] |  |  |  | inhibition in vivo at 30 mg/kg (Mus musculus [1]): 47%
2 | c1cc(CN2CCCNCCNCCCNCC2)ccc1CN1CCCNCCNCCCNCC1 |  | 55% |  | 
3 | O=C(NCc1ccc(CNS(=O)(=O)c2ccc(F)c(F)c2)cc1)c1cnc2ccccn12 | > 1000 nM |  |  | 
4 | Cc1nnsc1C(=O)NCc1ccc(CNS(=O)(=O)c2ccc(F)c(F)c2)cc1 | 10 nM | 40% | 54% | Activity (Mus musculus [4]): Active; Activity (Mus musculus [8]): Active; Activity (Mus musculus [9]): Active
5 | O=C(NCc1ccc(CNS(=O)(=O)c2ccc3c(c2)CCO3)cc1)c1cccc2c1COC2 | 1000 nM | 40% |  | 
6 | O=C(NCc1ccc(CNS(=O)(=O)c2ccc3c(c2)CCO3)cc1)c1cccnc1 | 1000 nM | 60% | 10% | 

Second part, led by results:

Row | EC [2] | SMILES | inhibition [3] | inhibition in vivo at 10 mg/kg (Mus musculus [7]) | further results
7 | > 1000 nM | O=C(NCc1ccc(CNS(=O)(=O)c2ccc(F)cc2F)cc1)c1ncc[nH]1 |  |  | 
8 | 1 nM | O=C(NCc1ccc(CNS(=O)(=O)c2ccc(F)cc2F)cc1)c1cncnc1 | 74% | 56% | Activity (Mus musculus [4]): Active; inhibition [5]: 67%; Ratio [6]: 1000; Activity (MDA-MB-231): Non-Toxic; Activity (Mus musculus [8]): Active; Activity (Mus musculus [9]): Active; inhibition [10]: Dose-dependent effect
9 | 1 nM | O=C(NCc1ccc(CNS(=O)(=O)c2ccc3c(c2)CCO3)cc1)c1cc2ccccn2n1 | 40% |  | Ratio [6]: 1000
10 | 10 nM | O=C(NCc1ccc(CNS(=O)(=O)c2ccc3c(c2)CCO3)cc1)c1scc2c1OCCO2 | 68% | 0% | 
11 | 100 nM | O=C(NCc1ccc(CNS(=O)(=O)c2ccccc2F)cc1)c1cc2ccccn2n1 | 40% |  | 
12 | 1000 nM | O=C(NCc1ccc(CNS(=O)(=O)c2cccc(F)c2)cc1)c1cc2ccccn2n1 | 40% |  | 
13 | 1000 nM | Cn1nccc1C(=O)NCc1ccc(CNS(=O)(=O)c2ccc3c(c2)CCO3)cc1 | 40% | 38% | 
14 | 1000 nM | Cc1cc(C(=O)NCc2ccc(CNS(=O)(=O)c3ccc4c(c3)CCO4)cc2)n(C)n1 | Active | 35% | 
